Laboratory results published in PMC4520450, “Procyanidins Negatively Affect the Activity of the Phosphatases of Regenerating Liver” (PLoS ONE, 2015).
Like-named read-outs stand apart in the source and are kept apart here. Each block holds one compound with its values, some of them ahead of it.

Experiments:
protein phosphatase-1 = target: protein phosphatase-1; design: method as in PMID 22260360; conditions: cited from earlier work
PRL-3 = target: T1, PRL-3 (Homo sapiens, UniProt O75365); experiment: DiFMUP phosphatase activity assay for PRLs; assay type: biochemical
T1 construct: His-TEV (cleaved yes); made in house
T1 sequence (O75365 whole entry): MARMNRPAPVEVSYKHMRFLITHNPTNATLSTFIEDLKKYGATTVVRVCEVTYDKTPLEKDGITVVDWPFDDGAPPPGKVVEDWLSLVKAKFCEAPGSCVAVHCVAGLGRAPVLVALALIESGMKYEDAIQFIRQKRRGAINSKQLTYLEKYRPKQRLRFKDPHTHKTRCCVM
Description: Biochemical phosphatase activity measurements were carried out in the presence of different concentrations of various polyphenols, compounds 1–11 (Fig 1), using recombinant PRL-3 and 6,8-difluoro-4-methylumbelliferyl phosphate (DiFMUP) as a fluorogenic substrate (see the experimental procedures). We observed that the monomeric epicatechins EGC and EC inhibit PRL-3 only weakly, with a slightly better activity of EGC, which bears three hydroxyl groups at the B-ring. […] In general, as a basic structure activity-relationship the following trend was observed: a higher number of hydroxyl groups at the B-ring increased the activity slightly. […] The influence of the stereochemistry at C(2)–C(3) was studied by using GCG (the trans-epimer of EGCG).
(§1) Fig 2 Effect of polyphenolic compounds 8 (A), 9 (B), 10 (C) and 11 (D) on the phosphatase activity of PRL-1, PRL-2, PRL-3, PP1, and PP2A. Proteins were incubated for 30 min with 0–1000 μM of the corresponding procyandin 8–11. Phosphatase activity was measured in the presence of DiFMUP at 25°C using the concentration corresponding to the KM of each protein. The KM for PRLs was determined separately (PRL-3 = 21 μM, PRL-2 and PRL-1 = 24 μM). The KM for PP1 (91 μM) and for PP2A (100 μM) was taken from the literature. Protein concentrations are 50 nM for all PRLs and 2 mU for PP1 and 0.05 U for PP2A (see the Experimental Procedures). Phosphatase activity in the absence of inhibitors was set as 100%. Data represent means ± standard errors of the mean (n = 3–5).
(§2) DiFMUP assay for PRLs: In a final reaction volume of 100 μL the PRLs (50 nM final concentration) were incubated with decreasing concentrations of the inhibitory polyphenols for 30 minutes at 25°C. The buffer conditions were 108 mM TrisCl (pH 7.5), Triton 0.05% (v/v), DTT 27.0 mM, NaCl 811 mM. After the incubation time 20 μL DiFMUP (6,8-Difluoro-4-methylumbelliferyl phosphate) was added to reach a final concentration of 21 μM for PRL-3 and 24 μM for PRL-1 and PRL-2. On a Tecan safire2 (Tecan, Salzburg, Austria) plate reader dephosphorylation of the substrate to its fluorescent product was monitored by following the emission at 358 nm with excitation at 452 nm for 20 minutes. All measurements were done in triplicates, and the experiments were repeated at least three times. The slopes of the initial phases were obtained by linear regression of the data points. The normalized reaction rates were plotted versus the log of the inhibitor concentrations and the IC50 values were obtained by fitting the curves using the one site competition model of GraphPad Prism (GraphPad Software, Version 5). KM values were determined by measuring reaction kinetics of substrate dilution series. Initial velocities were plotted against DiFMUP concentration and the data was analyzed by Michaelis-Menten kinetics curve fitting of GraphPad Prism. A final DMSO content of 0.4% was maintained for the monomeric catechins. Due to the high water solubility of the procyanidins DMSO was not required and measurements were done in assay buffer only.

PRL-1 = target: T2, PRL-1 (Homo sapiens, UniProt Q93096); experiment: DiFMUP phosphatase activity assay for PRLs; assay type: biochemical
T2 construct: His-TEV (cleaved yes); made in house
T2 sequence (Q93096 1-173): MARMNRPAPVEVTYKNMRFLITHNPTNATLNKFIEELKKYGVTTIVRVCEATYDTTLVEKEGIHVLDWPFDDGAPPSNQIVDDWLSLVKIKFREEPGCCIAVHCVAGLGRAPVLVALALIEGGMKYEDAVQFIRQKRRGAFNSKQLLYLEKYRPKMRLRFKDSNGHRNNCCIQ
Description: as §1, §2

[1] = tested on: PRL-1 overexpressing HEK293 cells; experiment: Wound healing assay; assay type: cell-based; conditions: 35 μM analog 3, PRL-1 overexpressing cells
Description: (§3) To study if procyanidin C2 is able to inhibit PRL-1 and PRL-3 in cells, HEK293 cells were treated in a wound-healing assay (see the experimental procedures). […] As a control the empty vector cell line was again utilized. […] The migration speed was for all cell lines similar when treated with 50 μM of 9. To further corroborate these findings we performed additionally a transwell assay as an alternative way to study cell migration.
(§4) Fig 6 Wound healing abilities of PRL-1 or PRL-3 overexpressing or empty vector control HEK293 cell lines were analyzed in the presence of compound 9 or medium only. Cells were seeded at a concentration of 800,000 cells per insert and procyanidin C2 (9) was added at a concentration of 25 and 50 μM. A) Pictures of the wound gaps were taken at 0 h and 7 h for both conditions (with and without treatment). B) Quantification of the wound healing experiment. Speed of migration is shown for combined data from different replicates, as mean ± SD (n = 38–88). Two-sided t-tests with Welsh correction were performed for p < 0.05. ns = not significant;***: < 0.001; **: < 0.01; *: < 0.05. C) Effect of polyphenolic compounds in a transwell assay on the cell migration of HEK293 empty vector and PRL-3 overexpressing cell lines. Cells were seeded at a concentration of 100,000 cells per insert and procyanidin C2 (9) was added at a final concentration of 25 and 50 μM. Migration was allowed for 16 h before harvesting and staining with calcein AM for fluorescent readout. Mean ± SD (n = 60–72) is shown for combined data from different replicates. Two-sided t-tests with Welsh correction were performed for p < 0.05. ns = not significant. D) Quantification of wound healing experiment including blocking PRL-1 and PRL-3 with analog 3. Speed of migration is shown for combined data from different replicates, as mean ± SD (n = 63–82). Two-sided t-tests with Welsh correction were performed for p < 0.05.
(§5) Wound healing experiments were carried out with μ-dish 35mm culture inserts. 8 × 10^5 cells/mL of the respective HEK293 stable cell lines were seeded into each of the two insert wells and allowed to settle for 40 h in the presence of tetracycline. Then the inserts were gently removed and growth medium supplemented with 7.5% FBS and 0.1% tetracycline was added as well as procyanidin C2 (9) or procyanidin B3 (8) at a final concentration of 25, 50 or 75 μM. For the experiment including blocking of PRLs with analog 3, the latter one was added at a final concentration of 35 μM, followed by addition of procyanidin C2 (9) at either 25 or 50 μM final concentration. Negative controls contained growth medium with FBS only. Pictures of the wound gap were taken at 0 h and 7 h time points. A Zeiss Cellobserver HS microscope was used with 10 × magnitude. For data analysis, in each experiment, the distances between both cell fronts at time point 0 h and 7 h were measured by taking 20 different measuring points. Then all the measurements from different replicates (4) for each experiment were combined and analyzed by t-test using Welsh correction in GraphPad Prism. Data are shown with 99% confidence intervals.

[2] = tested on: PRL-3 overexpressing HEK293 cells; experiment: Wound healing assay; assay type: cell-based; conditions: 35 μM analog 3, PRL-3 overexpressing cells
Description: as §3, §4, §5

PP1 = target: T3, PP1 (Oryctolagus cuniculus, UniProt P62139); experiment: DiFMUP assay for PP1; assay type: biochemical
T3 construct: purchased NewEngland Biolabs; host or cells: E. coli
T3 sequence (P62139 whole entry): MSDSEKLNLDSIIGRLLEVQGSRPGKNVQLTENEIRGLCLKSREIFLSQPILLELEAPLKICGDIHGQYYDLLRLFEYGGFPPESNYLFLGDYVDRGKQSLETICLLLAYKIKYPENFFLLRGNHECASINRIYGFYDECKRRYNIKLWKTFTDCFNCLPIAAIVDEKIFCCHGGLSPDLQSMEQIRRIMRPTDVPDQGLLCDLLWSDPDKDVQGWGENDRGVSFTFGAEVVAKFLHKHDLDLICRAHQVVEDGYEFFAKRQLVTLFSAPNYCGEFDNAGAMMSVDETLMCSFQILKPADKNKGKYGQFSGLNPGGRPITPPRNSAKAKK
Description: as §1
(§6) BSA, which is usually supplemented to the assay buffer for stabilizing the PPs was however excluded, as BSA is known to form complexes with polyphenolic compounds [40–42] and thus would decrease the concentrations of the inhibitor in the assay. […] In contrast, the phosphatase activity of PP2A was suppressed to a much lesser extent with weak (for trimer 9 and hexamer 11) and strong statistical significance (dimer 8 and tetramer 10). Thus our results corroborate the data reported previously.
DiFMUP assay for PP1: In a final reaction volume of 100 μL PP1c (2 mU final concentration, according to manufacturer’s instructions) were incubated with decreasing concentrations of the inhibitory polyphenols for 30 minutes at 25°C. The assay buffer contained 25 mM imidazole (pH 7.4), 1 mM dithiothreitol (DTT), and 50 mM NaCl. Bovine serum albumin (BSA) was excluded due to possible binding of the polyphenolic compounds. After the incubation time 20 μL DiFMUP (6,8-Difluoro-4-methylumbelliferyl phosphate) was added to reach a final concentration of 100 μM. Monitoring of the fluorescent dephosphorylation product was monitored and data analyzed as described above.

PP2A = target: T4, PP2A (Homo sapiens, UniProt P67775); experiment: DiFMUP assay for PP2A; assay type: biochemical; conditions: 0.05 U PP2A, 30 min preincubation, 25°C, no BSA, mean ± SEM (n = 3–5), read-out: IC50 (Ki) PP2A
T4 construct: purified from human red blood cells; purchased Merck Millipore; host or cells: human red blood cells
T4 sequence (P67775 whole entry): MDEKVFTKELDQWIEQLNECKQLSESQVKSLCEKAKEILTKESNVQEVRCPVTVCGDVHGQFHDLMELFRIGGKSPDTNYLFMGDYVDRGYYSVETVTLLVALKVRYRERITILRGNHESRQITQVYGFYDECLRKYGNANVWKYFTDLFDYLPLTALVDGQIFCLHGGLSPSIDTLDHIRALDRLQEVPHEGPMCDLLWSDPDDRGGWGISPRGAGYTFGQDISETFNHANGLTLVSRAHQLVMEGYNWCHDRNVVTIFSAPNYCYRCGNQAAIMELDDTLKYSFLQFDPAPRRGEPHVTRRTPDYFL
T4 sequence (P30153 2-589 partner limits assumed): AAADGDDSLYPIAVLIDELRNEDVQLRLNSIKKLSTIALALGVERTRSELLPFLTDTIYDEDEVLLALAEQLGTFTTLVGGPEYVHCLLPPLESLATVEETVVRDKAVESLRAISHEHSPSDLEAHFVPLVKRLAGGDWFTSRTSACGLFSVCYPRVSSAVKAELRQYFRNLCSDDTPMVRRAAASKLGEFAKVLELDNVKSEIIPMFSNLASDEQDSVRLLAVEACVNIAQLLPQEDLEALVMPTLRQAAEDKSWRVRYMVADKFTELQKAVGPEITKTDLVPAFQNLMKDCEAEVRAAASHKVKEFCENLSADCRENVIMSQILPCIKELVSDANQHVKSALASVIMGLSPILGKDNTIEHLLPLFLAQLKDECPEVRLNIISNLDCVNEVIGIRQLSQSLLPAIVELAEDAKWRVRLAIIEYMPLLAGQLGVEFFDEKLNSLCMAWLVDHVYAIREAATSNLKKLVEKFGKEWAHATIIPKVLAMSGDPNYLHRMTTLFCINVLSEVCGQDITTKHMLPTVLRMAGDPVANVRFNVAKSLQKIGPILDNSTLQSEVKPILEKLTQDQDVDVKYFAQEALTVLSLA
Description: as §1, §6
Chemicals and vendors were as follows: Synthesis of Procyanidins (dimer to dodecamer) was done as previously reported. EGCG, EGC, ECG and EC were synthesized as previously reported or purchased from Sigma. (+)-Catechin and 3-(4,5-dimethylthiazol-2-yl)-2,5-diphenyltetrazolium bromide (MTT) were obtained from Sigma. 6,8-Difluoro-4-Methylumbelliferyl Phosphate (DiFMUP), propidium iodide and calcein AM were from lifescience technologies. Cell dissociation solution (10X) was purchased from amsbio. PP1c (recombinant from E. coli) was purchased from NewEngland Biolabs and PP2A (purified from human red blood cells, contains different subunits according to manufacturer) from Merck Millipore. Transwell plates (BRANDplates) and insert stripes for the migration assay were purchased from Brand GmbH. Black 96 well plates (96F Nunclon Delta) were purchased from Thermo Scientific. Transparent 96 well assay plates with UV transparent bottom were purchased from Corning Inc. Wound healing experiments were carried out with μ-dish 35 mm culture inserts, which were purchased from Ibidi.
DiFMUP assay for PP2A: In a final reaction volume of 100 μL PP2A (0.05 U final concentration, according to manufacturer’s instructions) were incubated with decreasing concentrations of the inhibitory polyphenols for 30 minutes at 25°C. The assay buffer contained 50 mM TrisCl (pH 7.5), 250 mM NaCl, 0.1 mM EDTA, 1 mM MnCl2, and 2 mM dithiothreitol (DTT). […] Monitoring of the fluorescent dephosphorylation product was monitored and data analyzed as described above.

PRL-2 = target: T5, PRL-2 (Homo sapiens, UniProt Q12974); experiment: DiFMUP phosphatase activity assay for PRLs; assay type: biochemical; conditions: 50 nM PRL-2, 30 min preincubation, 25°C, 24 μM DiFMUP; mean ± SEM (n = 3–5); read-out: IC50 (Ki) PRL-2
T5 construct: His-TEV (cleaved yes); made in house
T5 sequence (Q12974 1-167): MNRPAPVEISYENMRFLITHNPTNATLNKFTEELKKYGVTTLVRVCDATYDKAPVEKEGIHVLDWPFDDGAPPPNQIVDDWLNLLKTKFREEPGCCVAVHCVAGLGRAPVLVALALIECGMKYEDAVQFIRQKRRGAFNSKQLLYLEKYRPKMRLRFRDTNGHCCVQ
Description: as §1, §2

[3] = 50 nM PRL-3, 30 min preincubation, 25°C, 21 μM DiFMUP, mean ± SEM (n = 3–5), read-out: IC50 (Ki) PRL-3

SMILES: O=C(OC[C@H]1O[C@@H](OC(=O)c2cc(O)c(O)c(O)c2)[C@H](OC(=O)c2cc(O)c(O)c(O)c2)[C@@H](OC(=O)c2cc(O)c(O)c(O)c2)[C@@H]1OC(=O)c1cc(O)c(O)c(O)c1)c1cc(O)c(O)c(O)c1 [PGG, 1,2,3,4,6-penta-O-galloyl-beta-D-glucose, reference compound]
IC50 (protein phosphatase-1): 0.4 µM

SMILES: O=C(O)c1cc(O)c(O)c(O)c1 [Gallic acid (7), Gallic acid]
IC50 (PRL-3): > 1000 µM
inhibition of PRL-3 (PRL-3; up to 1000 μM): did not show any inhibition

SMILES: Oc1cc(O)c2c(c1)O[C@H](c1cc(O)c(O)c(O)c1)[C@H](O)C2 [analog 3, reference compound]
migration speed, wound healing [1]: a bit lower than the baseline
migration speed, wound healing [2]: fell back to the baseline level of the empty vector cell line

SMILES: Oc1cc(O)c2c(c1)O[C@H](c1cc(O)c(O)c(O)c1)[C@H](O)C2 [EGC (3), (–)-epigallocatechin]
IC50 (PRL-3; [3]): 285 ± 3.7 µM

Other lines, results leading:

increase in PRL-3 inhibition of 3-gallate ester compared to non-gallate (2 vs 1, 4 vs 3) (PRL-3): about two-fold increase
IC50 (PRL-3; [3]): 181 ± 13.6 µM
SMILES: O=C(O[C@@H]1Cc2c(O)cc(O)cc2O[C@@H]1c1ccc(O)c(O)c1)c1cc(O)c(O)c(O)c1 [ECG (2), (–)-epicatechin-3-O-gallate]

IC50 (PRL-3; [3]): 456 ± 65.6 µM
IC50 toward PRL-1 relative to IC50 values of the oligomers (PRL-1): 50 fold
IC50 toward PRL-1 relative to PRL-3 (PRL-1): about three times lower
IC50 (PRL-1; 50 nM PRL-1, 30 min preincubation, 25°C, 24 μM DiFMUP, mean ± SEM (n = 3–5), read-out: IC50 (Ki) PRL-1): 158 ± 1.2 µM
SMILES: Oc1cc(O)c2c(c1)O[C@H](c1ccc(O)c(O)c1)[C@@H](O)C2 [(+)-Catechin (6), (+)-Catechin]

IC50 (PRL-3; [3]): 113 ± 10.7 µM
SMILES: O=C(O[C@H]1Cc2c(O)cc(O)cc2O[C@@H]1c1cc(O)c(O)c(O)c1)c1cc(O)c(O)c(O)c1 [GCG (5)]

IC50 (PRL-3; [3]): 514 ± 68.2 µM
SMILES: Oc1cc(O)c2c(c1)O[C@H](c1ccc(O)c(O)c1)[C@H](O)C2 [EC (1), (–)-epicatechin]

PP1 potency of hexamer compared to tetramer 10 (PP1): increased only about two-fold
IC50 (PP1; 2 mU PP1c, 30 min preincubation, 25°C, DiFMUP, no BSA, mean ± SEM (n = 3–5), read-out: IC50 (Ki) PP1): 7 ± 2.3 µM
IC50 (PP2A): 32.5 ± 4.8 µM
IC50 (PRL-3; [3]): 12.5 ± 1.8 µM
IC50 (PRL-2): 10 ± 0.4 µM
SMILES: Oc1cc(O)c2c(c1)O[C@H](c1ccc(O)c(O)c1)[C@@H](O)[C@@H]2c1c(O)cc(O)c2c1O[C@H](c1ccc(O)c(O)c1)[C@@H](O)[C@@H]2c1c(O)cc(O)c2c1O[C@H](c1ccc(O)c(O)c1)[C@@H](O)[C@@H]2c1c(O)cc(O)c2c1O[C@H](c1ccc(O)c(O)c1)[C@@H](O)[C@@H]2c1c(O)cc(O)c2c1O[C@H](c1ccc(O)c(O)c1)[C@@H](O)[C@@H]2c1c(O)cc(O)c2c1O[C@H](c1ccc(O)c(O)c1)[C@@H](O)C2 [Hexamer (11)]
